Columns and labels:
[1] = test system: pigweed; assay: Test D preemergence; format: in vivo, Amaranthus retroflexus; conditions: Amaranthus retroflexus, pre-emergence
Method in brief: (§1)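 Values are 0–100 visual control ratings (0 none, 100 complete) given 7–21 days after application. Soil for preemergence was silt loam; postemergence plants stood 2–18 cm tall.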

[2] = test system: wild mustard; assay: Test D preemergence; format: in vivo, Sinapis arvensis; conditions: Brassica, pre-emergence
Method in brief: as §1

[3] = test system: bluegrass; assay: Test D postemergence; format: in vivo, Poa annua; conditions: Poa annua, post-emergence, Postemergence, scale 0 to 100 (0 no effect, 100 complete control), read-out: Plant response rating, Bluegrass
Method in brief: as §1

[4] = test system: blackgrass; assay: Test D postemergence; format: in vivo, Alopecurus myosuroides; conditions: Alopecurus myosuroides, post-emergence, Postemergence, scale 0 to 100 (0 no effect, 100 complete control), read-out: Plant response rating, Blackgrass
Method in brief: as §1

[5] = test system: field poppy; assay: Test D postemergence; format: in vivo, Papaver rhoeas; conditions: Papaver rhoeas, post-emergence
Method in brief: as §1

[6] = test system: deadnettle; assay: Test D postemergence; format: in vivo, Lamium amplexicaule; conditions: Lamium amplexicaule, post-emergence
Method in brief: as §1

[7] = test system: spring barley; assay: Test D postemergence; format: in vivo, Hordeum vulgare; conditions: Hordeum vulgare, post-emergence, Postemergence, scale 0 to 100 (0 no effect, 100 complete control), read-out: Plant response rating, Barley, Spring
Method in brief: as §1

[8] = test system: winter barley; assay: Test D postemergence; format: in vivo, Hordeum vulgare; conditions: Hordeum vulgare, post-emergence, Postemergence, scale 0 to 100 (0 no effect, 100 complete control), read-out: Plant response rating, Barley, Winter
Method in brief: as §1

[9] = test system: corn; assay: Test E postemergence; format: in vivo, Zea mays; conditions: Zea mays, post-emergence
Method in brief: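 Test chemicals formulated in a non-phytotoxic solvent mixture containing a surfactant were applied preemergence to seeds in silt loam soil or postemergence to plants at the 1- to 4-leaf stage in potting mix. After 14 to 21 days in a greenhouse, injury was visually rated against controls on a 0-100 scale (0 = no effect, 100 = complete control).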

[10] = test system: Brazilian crabgrass; assay: Test E postemergence; format: in vivo, Digitaria horizontalis; conditions: Digitaria horizontalis, post-emergence, read-out: Plant response rating, Crabgrass, Brazil
From the text: (§2) Seeds of plant species selected from corn (Zea mays), soybean (Glycine max), velvetleaf (Abutilon theophrasti), lambsquarters (Chenopodium album), wild poinsettia (Euphorbia heterophylla), palmer pigweed (Amaranthus palmeri), waterhemp (common waterhemp, Amaranthus rudis), surinam grass (Brachiaria decumbens), large (Lg) crabgrass (Digitaria sanguinalis), Brazilian crabgrass (Digitaria horizontalis), fall panicum (Panicum dichotomiflorum), giant foxtail (Setaria faberii), green foxtail (Setaria viridis), goosegrass (Eleusine indica), johnsongrass (Sorghum halepense), ragweed (common ragweed, Ambrosia elatior), barnyardgrass (Echinochloa crus-galli), sandbur (southern sandbur, Cenchrus echinatus), arrowleaf sida (Sida rhombifolia), Italian ryegrass (Lolium multiflorum), dayflower (Virginia (VA) dayflower, Commelina virginica), field bindweed (Convolvulus arvensis), morningglory (Ipomoea coccinea), nightshade (eastern black nightshade, Solanum ptycanthum), kochia (Kochia scoparia), yellow nutsedge (Cyperus esculentus), cocklebur (common cocklebur, Xanthium strumarium), smartweed (ladysthumb smartweed, and hairy beggarticks (Bidens pilosa), were planted into a silt loam soil and treated preemergence with test chemicals formulated in a non-phytotoxic solvent mixture which included a surfactant.
(§3) At the same time, plants from these crop and weed species and also horseweed (Canada horseweed, Conyza canadensis), waterhemp_RES1, (ALS & Triazine resistant common waterhemp, Amaranthus rudis), and waterhemp_RES2, (ALS & HPPD resistant common waterhemp, Amaranthus rudis) were planted in pots containing Redi-Earth® planting medium (Scotts Company, 14111 Scottslawn Road, Marysville, Ohio 43041) comprising spaghnum peat moss, vermiculite, wetting agent and starter nutrients were treated with postemergence applications of test chemicals formulated in the same manner. Plants ranged in height from 2 to 18 cm for postemergence treatments (1- to 4-leaf stage). Treated plants and controls were maintained in a greenhouse for 14 to 21 days, after which time all species were compared to controls and visually evaluated. Plant response ratings, summarized in Table E, are based on a scale of 0 to 100 where 0 is no effect and 100 is complete control. A dash (-) response means no test result.

[11] = test system: hairy beggarticks; assay: Test E postemergence; format: in vivo, Bidens pilosa; conditions: Bidens pilosa, post-emergence, read-out: Plant response rating, Beggarticks
From the text: as §2, §3

[12] = Postemergence, 31 g ai/ha, scale 0 to 100
[13] = Postemergence, 62 g ai/ha, scale 0 to 100
[14] = Postemergence, 125 g ai/ha, scale 0 to 100
[15] = postemergence, 8 g ai/ha, scale 0 to 100, 0 no effect, 100 complete control
[16] = postemergence, 16 g ai/ha, scale 0 to 100, 0 no effect, 100 complete control

## Clc1cnc(Oc2ccccc2-n2cc(Br)cn2)nc1 [Compound 7, 2-[2-(4-bromo-1H-pyrazol-1-yl)phenoxy]-5-chloropyrimidine]
[1]; 16 g ai/ha, scale 0 (no effect) to 100 (complete control), read-out: Plant response rating, Pigweed
  pest or weed control at 16 g/ha: 0%
[1]; 31 g ai/ha, scale 0 (no effect) to 100 (complete control), read-out: Plant response rating, Pigweed
  pest or weed control at 31 g/ha: 30%
[1]; 62 g ai/ha, scale 0-100, read-out: Plant response rating, Pigweed
  pest or weed control at 62 g/ha: 90%
[1]; 125 g ai/ha, scale 0-100, read-out: Plant response rating, Pigweed
  pest or weed control at 125 g/ha: 90%
[1]; 250 g ai/ha, scale 0-100, read-out: Plant response rating, Pigweed
  pest or weed control at 250 g/ha: 90%
[2]; 16 g ai/ha, scale 0 (no effect) to 100 (complete control), read-out: Plant response rating, Mustard, Wild
  pest or weed control at 16 g/ha: 20%
[2]; 31 g ai/ha, scale 0-100, read-out: Plant response rating, Mustard, Wild
  pest or weed control at 31 g/ha: 20%
[2]; 62 g ai/ha, scale 0-100, read-out: Plant response rating, Mustard, Wild
  pest or weed control at 62 g/ha: 80%
[2]; 125 g ai/ha, scale 0-100, read-out: Plant response rating, Mustard, Wild
  pest or weed control at 125 g/ha: 90%
[2]; 250 g ai/ha, scale 0-100, read-out: Plant response rating, Mustard, Wild
  pest or weed control at 250 g/ha: 100%
[3]; 16 g ai/ha
  pest or weed control at 16 g/ha: 0%
[3]; 31 g ai/ha
  pest or weed control at 31 g/ha: 0%
[3]; 62 g ai/ha
  pest or weed control at 62 g/ha: 0%
[3]; 125 g ai/ha
  pest or weed control at 125 g/ha: 10%
[3]; 250 g ai/ha
  pest or weed control at 250 g/ha: 15%
[4]; 62 g ai/ha
  pest or weed control at 62 g/ha: 5%
[4]; 16 g ai/ha
  pest or weed control at 16 g/ha: 0%
[4]; 31 g ai/ha
  pest or weed control at 31 g/ha: 5%
[4]; 125 g ai/ha
  pest or weed control at 125 g/ha: 10%
[4]; 250 g ai/ha
  pest or weed control at 250 g/ha: 25%
[5]; 16 g ai/ha, scale 0-100, read-out: Plant response rating, Field Poppy
  pest or weed control at 16 g/ha: 10%
[5]; 31 g ai/ha, scale 0 to 100 (0 no effect, 100 complete control), read-out: Plant response rating, Field Poppy
  pest or weed control at 31 g/ha: 20%
[5]; 62 g ai/ha, scale 0 to 100 (0 no effect, 100 complete control), read-out: Plant response rating, Field Poppy
  pest or weed control at 62 g/ha: 50%
[5]; 125 g ai/ha, scale 0 to 100 (0 no effect, 100 complete control), read-out: Plant response rating, Field Poppy
  pest or weed control at 125 g/ha: 50%
[5]; 250 g ai/ha, scale 0 to 100 (0 no effect, 100 complete control), read-out: Plant response rating, Field Poppy
  pest or weed control at 250 g/ha: 60%
[6]; 16 g ai/ha, scale 0-100, read-out: Plant response rating, Deadnettle
  pest or weed control at 16 g/ha: 10%
[6]; 31 g ai/ha, scale 0 to 100 (0 no effect, 100 complete control), read-out: Plant response rating, Deadnettle
  pest or weed control at 31 g/ha: 10%
[6]; 62 g ai/ha, scale 0 to 100 (0 no effect, 100 complete control), read-out: Plant response rating, Deadnettle
  pest or weed control at 62 g/ha: 20%
[6]; 125 g ai/ha, scale 0 to 100 (0 no effect, 100 complete control), read-out: Plant response rating, Deadnettle
  pest or weed control at 125 g/ha: 30%
[6]; 250 g ai/ha, scale 0 to 100 (0 no effect, 100 complete control), read-out: Plant response rating, Deadnettle
  pest or weed control at 250 g/ha: 40%
[7]; 16 g ai/ha
  plant injury at 16 g/ha: 0%
[7]; 31 g ai/ha
  plant injury at 31 g/ha: 0%
[7]; 62 g ai/ha
  plant injury at 62 g/ha: 0%
[7]; 125 g ai/ha
  plant injury at 125 g/ha: 5%
[7]; 250 g ai/ha
  plant injury at 250 g/ha: 5%
[8]; 16 g ai/ha
  plant injury at 16 g/ha: 0%
[8]; 31 g ai/ha
  plant injury at 31 g/ha: 0%
[8]; 62 g ai/ha
  plant injury at 62 g/ha: 0%
[8]; 125 g ai/ha
  plant injury at 125 g/ha: 0%
[8]; 250 g ai/ha
  plant injury at 250 g/ha: 0%
[9]; [12]
  corn plant response (injury) rating, 0-100 at 31 g/ha: 0%
[9]; [13]
  corn plant response (injury) rating, 0-100 at 62 g/ha: 10%
[9]; [14]
  corn plant response (injury) rating, 0-100 at 125 g/ha: 5%
[9]; [15]
  corn plant response (injury) rating, 0-100 at 8 g/ha: 0%
[9]; [16]
  corn plant response (injury) rating, 0-100 at 16 g/ha: 0%
[10]; [12]
  pest or weed control at 31 g/ha: 10%
[10]; [13]
  pest or weed control at 62 g/ha: 20%
[10]; [14]
  pest or weed control at 125 g/ha: 30%
[10]; [15]
  pest or weed control at 8 g/ha: 0%
[10]; [16]
  pest or weed control at 16 g/ha: 0%
[11]; [12]
  pest or weed control at 31 g/ha: 40%
[11]; [13]
  pest or weed control at 62 g/ha: 50%
[11]; [14]
  pest or weed control at 125 g/ha: 60%
[11]; [15]
  pest or weed control at 8 g/ha: 25%
[11]; [16]
  pest or weed control at 16 g/ha: 35%

— US9695155B2, “Herbicidal substituted pyrimidinyloxy benzene compounds” (E. I. DU PONT DE NEMOURS AND COMPANY, priority 2013, dated 2017)
